Here are results for 83 compounds from paper PMC12040169 (PLOS Biology, 2025).

What is called viability is a read-out of living cells in per cent, often relative to untreated cells.

One data set in a line: in vitro. Particulars: human, hela cells, % viability.
For the compound `CC(C)(C)OC(=O)N1CCC(Oc2ccccc2C#N)C1` (centres unmarked) [CBK003039], the viability at 28.5 h, 10 µM came out at 84.9%.
For the compound `Cc1cccc(C)c1OCC(O)CNCCc1ccccc1` (centres unmarked) [CBK003072], the viability at 28.5 h, 10 µM worked out at 107%.
Turning to `O=S(=O)(Nc1ccc(N2CCNCC2)c2ccccc12)c1cc(Cl)sc1Cl` [CBK003116C], the viability at 28.5 h, 10 µM was found to be 93.9%.
Take `O=S(=O)(Nc1ccc(N2CCNCC2)c2ccccc12)c1ccc(Cl)s1` [CBK003146C]: the viability at 28.5 h, 10 µM came to 104%.
In the case of `CC(C)(C)OC(=O)N1CCN(c2ccc(N)c3ccccc23)CC1` [CBK003162], the viability at 28.5 h, 10 µM stood at 88.3%.
With `c1ccc(CNc2cccc(N3CCNCC3)n2)cc1` [CBK003176T], the viability at 28.5 h, 10 µM amounted to 92%.
Turning to `CC(C)(C)OC(=O)NC(C)(C)C(=O)N1CC(C(=O)O)C(c2cc3ccccc3o2)C1` (centres unmarked) [CBK003236], the viability at 28.5 h, 10 µM was determined as 88%.
As for `CC(C)(CN(Cc1ccccc1)C(=O)/C=C/c1ccccc1)NC(=O)OC(C)(C)C` [CBK003266], the viability at 28.5 h, 10 µM came to 91.2%.
As for `CCNc1nc(Sc2ccc(Cl)cc2)cc(C(F)(F)F)n1` [CBK003349], the viability at 28.5 h, 10 µM was determined as 79.4%.
Regarding `O=C(CCC(=O)c1ccccc1)NC1CCc2ccccc21` (centres unmarked) [CBK003351], the viability at 28.5 h, 10 µM stood at 103%.
`Cc1ccc(S(=O)(=O)N2CCC(OC(N)=O)CC2)cc1` [CBK003369]: the viability at 28.5 h, 10 µM was 106%.
For `CC(C)(C)OC(=O)CN1C(=O)N[C@@H]2CCCC[C@@H]21` [CBK003423], the viability at 28.5 h, 10 µM came out at 84.8%.
Turning to `CCC(CC)Cn1c(-c2cccnc2)nc2cc(S(=O)(=O)NCCO)ccc21` [CBK003450], the viability at 28.5 h, 10 µM came out at 91%.
Take `O=C(O)c1cccc2c3c([nH]c12)CCCCC3` [CBK003451]: the viability at 28.5 h, 10 µM worked out at 85%.
Take `CSc1nc(N)cc(N2CCN(C(=O)OC(C)(C)C)CC2)n1` [CBK003458]: the viability at 28.5 h, 10 µM is 111%.
Consider `CC(C)(C)OC(=O)N1CCN(c2ccc(N)cn2)CC1` [CBK003463], for which the viability at 28.5 h, 10 µM was 95.5%.
For `CC(=O)Nc1ccc2c(c1)CCC(C)C2=O` (centres unmarked) [CBK003474], the viability at 28.5 h, 10 µM came to 78.4%.
`Cc1c(Cl)cccc1S(=O)(=O)Nc1nc(CCN2CCOCC2=O)cs1` [CBK003498K]: the viability at 28.5 h, 10 µM turned out to be 87.7%.
Turning to `CN(C(=S)NCc1ccccc1)C1CC[C@@]2(c3ccc(F)cc3)CCN(C)[C@H]2C1` (some centres unmarked) [CBK003500C], the viability at 28.5 h, 10 µM was determined as 90.1%.
Consider `COC(=O)c1sccc1S(=O)(=O)n1ccc2ccc(Br)cc21` [CBK003528], for which the viability at 28.5 h, 10 µM is 92.6%.
For the compound `CC(C)(C)OC(=O)N1CCN(c2ccnc(N)n2)CC1` [CBK003529], the viability at 28.5 h, 10 µM is 99.4%.
With `Cn1c(=O)c2c(O)cc(=O)oc2c2ccccc21` [CBK003546], the viability at 28.5 h, 10 µM is 93.3%.
Same read-out and setting: in the case of `Cc1cc(Oc2ccccc2)nc(NCc2ccccc2)n1` [CBK003557] it was 99.1%; in that of `Oc1cc(C(F)(F)F)nc(NCc2ccncc2)n1` [CBK003563], 85.5%; in that of `OC(COc1cccc2c1CCCC2)CN1CCC(O)(c2ccccc2)CC1` (centres unmarked) [CBK003585], 87.3%.
Take `CCNC(=S)NC1CC[C@@]2(C3=CC=CC4C=CC=CC34)CCN(C)[C@H]2C1` (some centres unmarked) [CBK003596C]: the viability at 28.5 h, 10 µM is 91.7%.
`CC(C)CC(=O)N1CCN(C(=O)c2ccc(F)cc2)CC1` [CBK003603]: the viability at 28.5 h, 10 µM came to 91.1%.
The same measure, in the same setting: as for `COc1cc(C(=O)N2CCN(C(=O)CC(C)C)CC2)cc(OC)c1OC` [CBK003604], the figure is 99.2%.
Regarding `CCCCNC(=S)N[C@H]1CC[C@@]2(C3=CC=CC4C=CC=CC34)CCN(C)[C@H]2C1` (some centres unmarked) [CBK003610C], the viability at 28.5 h, 10 µM was found to be 101%.
Turning to `Nn1c(-c2cccs2)nc2ccccc2c1=O` [CBK003650], the viability at 28.5 h, 10 µM worked out at 99.2%.
As for `C=C(C)CNc1ccccc1C(=O)OC` [CBK003656C], the viability at 28.5 h, 10 µM amounted to 89.1%.
Consider `C[C@H](NC(=O)OC1CC[C@@]2(c3ccccc3)CCN(C)[C@H]2C1)c1cccc2ccccc12` (some centres unmarked) [CBK003664], for which the viability at 28.5 h, 10 µM worked out at 111%.
As to `COc1ccc(NC(=O)C2CCCN2c2nc(O)cc(C(F)(F)F)n2)cc1` (centres unmarked) [CBK003704], the viability at 28.5 h, 10 µM is 77%.
Still for that read-out and setting: as for `CC(=O)N1CC(C)(C)c2ccccc21` [CBK003715], the figure is 99.6%.
On to `CC(C)CNCC1CC(C(=O)N2CCC(Cc3ccccc3)CC2)=NO1` (centres unmarked) [CBK003718C], for which the viability at 28.5 h, 10 µM stood at 89.7%.
`CC(NC(=O)n1ccc2c(N3CCNCC3)cccc21)c1ccccc1` (centres unmarked) [CBK003729C]: the viability at 28.5 h, 10 µM was 90.7%.
Regarding `O=C(Nc1c(F)cccc1F)n1ccc2c(N3CCNCC3)cccc21` [CBK003745C], the viability at 28.5 h, 10 µM came out at 89.5%.
Turning to `COc1ccc([C@@]23CCC(NC(=O)CCc4cccnc4)C[C@@H]2N(C)CC3)cc1OC` (some centres unmarked) [CBK003770], the viability at 28.5 h, 10 µM is 92.8%.
`Nc1nc(CCN2CCOCC2=O)cs1` [CBK003792]: the viability at 28.5 h, 10 µM was 85.8%.
`COc1cc2c(cc1OC)CN(CC(O)COc1cccc3c1CCCC3)CC2` (centres unmarked) [CBK003828]: the viability at 28.5 h, 10 µM came to 113%.
For `OC(CNCCc1c[nH]c2ccccc12)COc1cccc2c1CCCC2` (centres unmarked) [CBK003831], the viability at 28.5 h, 10 µM stood at 93.9%.
With `O=c1cc(-c2ccccc2)nc(N2CCOCC2)[nH]1` [CBK003840], the viability at 28.5 h, 10 µM is 93.9%.
For the compound `CN1CC(CO)Oc2ccccc21` (centres unmarked) [CBK003872C], the viability at 28.5 h, 10 µM came to 104%.
`CC(C)(C)OC(=O)N1CCN(c2ccccc2O)CC1` [CBK003878]: the viability at 28.5 h, 10 µM worked out at 94.5%.
Same read-out and setting: as for `Clc1nc2ccccc2nc1N1CCNCC1` [CBK003880], the figure is 96%.
Turning to `Clc1ncccc1OCCOc1ccccc1` [CBK003888], the viability at 28.5 h, 10 µM came out at 87.2%.
As for `NC1CCN(c2nccnc2OCCOc2cccnc2)CC1` [CBK003889F], the viability at 28.5 h, 10 µM was 82.3%.
`COc1cccc(CC2(C#N)CC2)c1` [CBK003907]: the viability at 28.5 h, 10 µM came out at 87.5%.
Same read-out and setting: in the case of `Cc1nc(Nc2ccc(Cl)cc2)nc(Oc2ccccc2)n1` [CBK003915] it was 101%; in that of `O=C(NC1CCCC1)C1CCCN1c1nc(O)cc(C(F)(F)F)n1` (centres unmarked) [CBK003927], 83.5%.
On to `CCCCc1cc(=O)[nH]c(NCc2ccc(C(F)(F)F)cc2)n1` [CBK003946], for which the viability at 28.5 h, 10 µM was 92.5%.
For the compound `COc1ccc(NC(=O)C2CCCN2c2nc(O)cc(C(F)(F)F)n2)c(OC)c1` (centres unmarked) [CBK003951], the viability at 28.5 h, 10 µM is 94.9%.
With `FC(F)(F)c1ccc(N2CCNCC2)nc1OCc1ccccc1COc1ccccc1` [CBK003965A], the viability at 28.5 h, 10 µM was determined as 91.9%.
In the case of `CCSc1nc(N2CCNC[C@@H]2C)ccc1C(F)(F)F` [CBK003986A], the viability at 28.5 h, 10 µM is 96.1%.
Still for that read-out and setting: as for `C[C@@H]1CN(c2ccc(C(F)(F)F)c(OCc3ccccc3)n2)CCN1` [CBK003987A], the figure is 94%.
As for `CCOc1ccsc1C(=O)Nc1cc(C)ccn1` [CBK004029], the viability at 28.5 h, 10 µM stood at 88.3%.
Same read-out and setting: in the case of `Cc1ccnc(NC(=O)c2ccccc2)c1` [CBK004031] it was 90.6%; in that of `CC(C)(C)OC(=O)N1CCC(Oc2ccc(CN)cc2)CC1` [CBK004131], 81.7%; in that of `Cc1nc2ccccc2c(=O)n1CC(N)=O` [CBK004145], 89.8%.
Turning to `Cc1ccc(S(N)(=O)=O)cc1NC(=O)c1ccco1` [CBK004204], the viability at 28.5 h, 10 µM stood at 93.7%.
Regarding `O=C(Nc1cc(N2CCNCC2)ncn1)c1cnc2ccccc2c1` [CBK004209T], the viability at 28.5 h, 10 µM is 80.5%.
Still for that read-out and setting: as for `O=C(CCOc1ccccc1)Nc1cc(N2CCNCC2)ncn1` [CBK004225T], the figure is 98.6%.
On the same count and under the same terms, as for `O=C(Nc1cncc(N2CCNCC2)n1)c1coc2c1C(=O)CCC2` [CBK004229T], the figure is 96.8%; as for `O=C(Nc1nccc(N2CCNCC2)n1)c1cccs1` [CBK004305T], 77.7%; as for `O=C1NC(c2ccccc2)Cc2onc(-c3ccccc3)c21` (centres unmarked) [CBK004409], 90.9%.
Consider `Cc1cc(Cl)cc(C)c1NS(=O)(=O)c1ccc(N2CCCNCC2)c2ccccc12` [CBK004433C], for which the viability at 28.5 h, 10 µM stood at 97.2%.
As for `COC(=O)c1sccc1NS(=O)(=O)c1cc(F)c(Br)cc1F` [CBK004492], the viability at 28.5 h, 10 µM came out at 103%.
In the case of `COC(=O)c1sccc1NS(=O)(=O)c1ccc(C(F)(F)F)cc1[N+](=O)[O-]` [CBK004510], the viability at 28.5 h, 10 µM came to 92.9%.
In the case of `Cc1ccc(S(=O)(=O)Nc2ccsc2C(=O)Nc2ccc(F)cc2)cc1` [CBK004571], the viability at 28.5 h, 10 µM was 91%.
On the same count and under the same terms, as for `Cc1ccc(S(=O)(=O)Nc2ccsc2C(=O)N2CCOCC2)cc1[N+](=O)[O-]` [CBK004612], the figure is 81.7%; as for `CCOC(=O)c1c(NS(=O)(=O)Cc2ccccc2[N+](=O)[O-])sc2c1CCCC2` [CBK004651], 95.8%.
Same read-out and setting: as for `CCOC(=O)CSc1nnc(NS(=O)(=O)c2cccc(Cl)c2C)s1` [CBK004669], the figure is 104%; as for `COC(=O)c1nc(Cl)c(Cl)nc1NS(=O)(=O)c1cccc(Cl)c1C` [CBK004709], 91.8%.
In the case of `CCCC(=O)Nc1cccnc1N1CCNCC1` [CBK004732T], the viability at 28.5 h, 10 µM was 94%.
Consider `CCC#CC(=O)Nc1ccc(N2CCNCC2)nc1` [CBK004746T], for which the viability at 28.5 h, 10 µM worked out at 101%.
In the case of `O=C(Nc1ccc(N2CCNCC2)nc1)C1CCCO1` (centres unmarked) [CBK004748T], the viability at 28.5 h, 10 µM came out at 85.7%.
Turning to `O=C(Nc1ccccc1N1CCNCC1)C1CCC1` [CBK004755T], the viability at 28.5 h, 10 µM is 90.9%.
On to `O=C(Nc1cccc(N2CCNCC2)c1)C1CCCO1` (centres unmarked) [CBK004768T], for which the viability at 28.5 h, 10 µM came to 93.4%.
Take `COCCC(=O)Nc1cccc(N2CCNCC2)c1` [CBK004769T]: the viability at 28.5 h, 10 µM stood at 89.9%.
As to `CCOC(=O)NC(=O)c1cn(N2CCOCC2)c(=O)[nH]c1=O` [CBK004845], the viability at 28.5 h, 10 µM is 104%.

The same data set, now with this note: human, hela cells, % viability, bulk resorufin, single well.
In the case of `CN(C)[C@H]1CCC[C@@H]1C(=O)Nc1ccc(Cl)c(Cl)c1` [CBK003406], the viability at 28.5 h, 10 µM came out at 86.9%.
Regarding `CCC(=O)N(C[C@H]1CCC[C@@H]1N(C)C)c1ccc(Cl)c(Cl)c1` [CBK003408], the viability at 28.5 h, 10 µM stood at 96.5%.
Same read-out and setting: in the case of `Cc1ccc2[nH]cc(CCN)c2c1` [CBK004365] it was 103%.
